Results from US20080234262A1 (Wyeth, priority 2007, published 2008).

Columns and labels:
PI3K = PI3K (Homo sapiens, UniProt P42336); assay: Fluorescence polarization assay for PI3K; assay type: biochemical; details: PI3Kα; read-out: PI3Kα IC50;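 also: PI3K kinase reaction on PIP2 with ATP, 30-60 min, product sensed by GST-GRP with red probe in fluorescence polarization (mP), controls without enzyme and at zero time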
prostate line LNCap = assay: In vitro cell culture growth assay (MTS), LNCap; assay type: cell-based, human; details: LNCap cells, three days after drug treatment;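 also: viable cell density read by absorbance at 490 nm, growth expressed as percent of vehicle-treated cells on the same plate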
breast line MDA468 = assay: In vitro cell culture growth assay (MTS), MDA468; assay type: cell-based, human; details: MDA468 cells, three days after drug treatment
Outline: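 Steps: plate cells; add inhibitors the next day; incubate 3 days; add MTS dye, which viable cells convert metabolically; measure absorbance at 490 nm; calculate percent of control growth relative to vehicle-treated cells in the same plate.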

Chain of PI3K (P42336 whole entry): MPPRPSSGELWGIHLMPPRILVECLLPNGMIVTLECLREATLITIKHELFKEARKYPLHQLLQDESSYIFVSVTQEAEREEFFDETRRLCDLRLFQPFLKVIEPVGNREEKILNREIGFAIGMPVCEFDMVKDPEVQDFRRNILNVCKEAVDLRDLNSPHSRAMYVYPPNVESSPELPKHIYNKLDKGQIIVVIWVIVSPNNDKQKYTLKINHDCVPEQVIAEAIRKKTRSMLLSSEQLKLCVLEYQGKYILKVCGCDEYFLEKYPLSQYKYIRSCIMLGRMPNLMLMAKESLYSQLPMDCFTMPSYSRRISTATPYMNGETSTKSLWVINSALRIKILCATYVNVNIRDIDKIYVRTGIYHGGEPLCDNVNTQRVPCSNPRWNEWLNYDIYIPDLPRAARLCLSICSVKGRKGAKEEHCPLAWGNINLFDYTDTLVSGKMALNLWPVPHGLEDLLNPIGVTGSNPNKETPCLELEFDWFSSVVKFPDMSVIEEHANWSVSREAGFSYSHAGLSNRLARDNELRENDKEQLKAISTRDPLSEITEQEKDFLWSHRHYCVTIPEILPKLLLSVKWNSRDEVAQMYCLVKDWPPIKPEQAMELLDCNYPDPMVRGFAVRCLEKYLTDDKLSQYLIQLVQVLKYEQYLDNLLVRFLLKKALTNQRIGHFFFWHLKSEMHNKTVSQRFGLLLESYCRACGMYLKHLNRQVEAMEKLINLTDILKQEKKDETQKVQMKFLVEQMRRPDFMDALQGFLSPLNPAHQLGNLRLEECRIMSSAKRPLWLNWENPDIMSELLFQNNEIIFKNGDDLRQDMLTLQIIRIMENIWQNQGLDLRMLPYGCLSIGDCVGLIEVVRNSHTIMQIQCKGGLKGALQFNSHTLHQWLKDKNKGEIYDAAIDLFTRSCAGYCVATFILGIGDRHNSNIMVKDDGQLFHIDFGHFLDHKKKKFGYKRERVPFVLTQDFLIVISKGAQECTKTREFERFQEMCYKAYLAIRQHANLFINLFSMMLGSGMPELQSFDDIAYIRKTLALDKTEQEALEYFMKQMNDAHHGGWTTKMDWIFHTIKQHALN
Chain of PI3K (P27986 whole entry partner): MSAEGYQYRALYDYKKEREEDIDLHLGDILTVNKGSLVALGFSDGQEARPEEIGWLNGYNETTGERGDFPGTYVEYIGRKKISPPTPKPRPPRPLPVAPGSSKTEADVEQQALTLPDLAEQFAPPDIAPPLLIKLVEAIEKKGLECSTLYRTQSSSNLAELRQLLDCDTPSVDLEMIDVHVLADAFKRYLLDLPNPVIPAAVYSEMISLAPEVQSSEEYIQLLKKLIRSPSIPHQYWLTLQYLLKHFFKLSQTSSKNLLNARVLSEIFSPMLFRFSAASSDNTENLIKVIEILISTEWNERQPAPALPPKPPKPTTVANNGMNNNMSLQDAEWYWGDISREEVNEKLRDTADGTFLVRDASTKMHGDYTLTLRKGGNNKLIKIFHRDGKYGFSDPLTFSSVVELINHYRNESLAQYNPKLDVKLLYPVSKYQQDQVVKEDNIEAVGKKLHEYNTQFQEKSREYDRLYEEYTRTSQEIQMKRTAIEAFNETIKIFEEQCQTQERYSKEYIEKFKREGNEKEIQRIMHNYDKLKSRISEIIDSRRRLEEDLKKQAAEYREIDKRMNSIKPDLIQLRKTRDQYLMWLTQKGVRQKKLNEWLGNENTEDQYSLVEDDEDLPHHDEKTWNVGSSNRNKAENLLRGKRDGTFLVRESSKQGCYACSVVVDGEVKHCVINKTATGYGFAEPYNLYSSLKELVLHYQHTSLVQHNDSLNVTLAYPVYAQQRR

| SMILES | IC50 (PI3K) | IC50 (prostate line LNCap; Homo sapiens, LNCaP, 72 h) | IC50 (prostate line LNCap) | IC50 (breast line MDA468) | IC50 (breast line MDA468; Homo sapiens, 72 h) |
| --- | --- | --- | --- | --- | --- |
| Nc1ccc(-c2nc(N3CCOCC3)c3cnn(C4CCN(C(=O)c5cccnc5)CC4)c3n2)nc1 [Compound 679, 6-{4-morpholin-4-yl-1-[1-(pyridin-3-ylcarbonyl)piperidin-4-yl]-1H-pyrazolo[3,4-d]pyrimidin-6-yl}pyridin-3-amine] | 4040 nM | – | 45000 nM | > 60000 nM | – |
| CNC(=O)Nc1ccc(-c2nc(N3CCOCC3)c3cnn(C4CCN(Cc5cccc(C)c5)CC4)c3n2)cc1 [Compound 674, 1-methyl-3-(4-{1-[1-(3-methylbenzyl)piperidin-4-yl]-4-morpholin-4-yl-1H-pyrazolo[3,4-d]pyrimidin-6-yl}phenyl)urea] | 42 nM | – | 52 nM | 190 nM | – |
| COc1ncccc1CN1CCC(n2ncc3c(N4CCOCC4)nc(-c4ccc5[nH]ccc5c4)nc32)CC1 [Compound 177] | 885 nM | 1300 nM | – | – | 3100 nM |
| S=C(Nc1cccnc1)N1CCC(n2ncc3c(N4CCOCC4)nc(-c4ccc5[nH]ccc5c4)nc32)CC1 [Compound 122, 4-[6-(1H-indol-5-yl)-4-morpholin-4-yl-1H-pyrazolo[3,4-d]pyrimidin-1-yl]-N-pyridin-3-ylpiperidine-1-carbothioamide] | 132 nM | 700 nM | – | – | 1300 nM |
| CCCNC(=O)Nc1ccc(-c2nc(N3CCOCC3)c3cnn(C4CCN(Cc5ccccc5)CC4)c3n2)cc1 [Compound 500, 1-{4-[1-(1-benzylpiperidin-4-yl)-4-morpholin-4-yl-1H-pyrazolo[3,4-d]pyrimidin-6-yl]phenyl}-3-propylurea] | 341 nM | 220 nM | – | – | 1500 nM |
| Nc1ccc(-c2nc(N3CCOCC3)c3cnn(C4CCN(CCCCO)CC4)c3n2)cc1 [Compound 749, 4-{4-[6-(4-aminophenyl)-4-morpholin-4-yl-1H-pyrazolo[3,4-d]pyrimidin-1-yl]piperidin-1-yl}butan-1-ol] | 4230 nM | 12000 nM | – | – | 30000 nM |
| CCNC(=O)Nc1ccc(-c2nc(N3CCOCC3)c3cnn(C4CCN(C(=O)C(C)C)CC4)c3n2)cc1 [Compound 822, 1-ethyl-3-{4-[1-(1-isobutyrylpiperidin-4-yl)-4-morpholin-4-yl-1H-pyrazolo[3,4-d]pyrimidin-6-yl]phenyl}urea] | 1230 nM | 120 nM | – | – | 500 nM |
| CC(=O)Nc1ccc(-c2nc(N3CCOCC3)c3cn[nH]c3n2)cc1 [Compound 233, N-[4-(4-morpholin-4-yl-1H-pyrazolo[3,4-d]pyrimidin-6-yl)phenyl]acetamide] | 443 nM | 3700 nM | – | – | 8500 nM |
| COC(=O)Nc1ccc(-c2nc(N3CCOC(C)C3)c3cnn(C4CCN(C(=O)OC)CC4)c3n2)cc1 (stereo not drawn) [Compound 840, methyl 4-[6-{4-[(methoxycarbonyl)amino]phenyl}-4-(2-methylmorpholin-4-yl)-1H-pyrazolo[3,4-d]pyrimidin-1-yl]piperidine-1-carboxylate] | 3550 nM | 3200 nM | – | – | 10000 nM |
| Oc1cccc(-c2nc(N3CCOCC3)c3cnn(C4CCN(Cc5ccc(Cl)cc5)CC4)c3n2)c1 [Compound 19] | 11 nM | 450 nM | – | – | 1700 nM |
| C=CCNC(=O)Nc1ccc(-c2nc(N3CCOCC3)c3cnn(C4CCN(Cc5ccccc5)CC4)c3n2)cc1 [Example 263, 1-allyl-3-{4-[1-(1-benzylpiperidin-4-yl)-4-morpholin-4-yl-1H-pyrazolo[3,4-d]pyrimidin-6-yl]phenyl}urea] | 268 nM | 250 nM | – | – | 1800 nM |
| O=C(Nc1ccc(-c2nc(N3CCOCC3)c3cn[nH]c3n2)cc1)c1cccnc1 [Compound 524, N-[4-(4-morpholin-4-yl-1H-pyrazolo[3,4-d]pyrimidin-6-yl)phenyl]nicotinamide] | 1170 nM | 7200 nM | – | – | 60000 nM |
| CCNC(=O)Nc1ccc(-c2nc(N3CCOCC3)c3cnn(C4CCN(CC(F)(F)F)CC4)c3n2)cc1 [Compound 782, 1-ethyl-3-(4-{4-morpholin-4-yl-1-[1-(2,2,2-trifluoroethyl)piperidin-4-yl]-1H-pyrazolo[3,4-d]pyrimidin-6-yl}phenyl)urea] | 766 nM | 60 nM | – | – | 300 nM |

Further molecules by falling IC50 (PI3K), results first:

| IC50 (PI3K) | IC50 (prostate line LNCap; Homo sapiens, LNCaP, 72 h) | IC50 (prostate line LNCap) | SMILES | IC50 (breast line MDA468) | IC50 (breast line MDA468; Homo sapiens, 72 h) |
| --- | --- | --- | --- | --- | --- |
| 4360 nM | 19 nM | – | CCNC(=O)Nc1ccc(-c2nc(N3CCOC[C@H]3C)c3cnn(C4CCN(C(=O)OCC)CC4)c3n2)cc1 [Compound 889, ethyl 4-(6-{4-[(ethylcarbamoyl)amino]phenyl}-4-[(3R)-3-methylmorpholin-4-yl]-1H-pyrazolo[3,4-d]pyrimidin-1-yl)piperidine-1-carboxylate] | – | 600 nM |
| 4040 nM | 45000 nM | – | Nc1ccc(-c2nc(N3CCOCC3)c3cnn(C4CCN(C(=O)c5cccnc5)CC4)c3n2)nc1 [Compound 435, 6-{4-morpholin-4-yl-1-[1-(pyridin-3-ylcarbonyl)piperidin-4-yl]-1H-pyrazolo[3,4-d]pyrimidin-6-yl}pyridin-3-amine] | – | 60000 nM |
| 3300 nM | 750 nM | – | COC(=O)N1CCC(n2ncc3c(N4CCOCC4)nc(-c4ccc5[nH]ccc5c4)nc32)CC1 [Example 244, methyl 4-[6-(1H-indol-5-yl)-4-morpholin-4-yl-1H-pyrazolo[3,4-d]pyrimidin-1-yl]piperidine-1-carboxylate] | – | 2100 nM |
| 2800 nM | 1000 nM | – | O=CN1CCC(n2ncc3c(N4CCOCC4)nc(-c4ccc5[nH]ccc5c4)nc32)CC1 [Compound 251, 4-[6-(1H-indol-5-yl)-4-morpholin-4-yl-1H-pyrazolo[3,4-d]pyrimidin-1-yl]piperidine-1-carbaldehyde] | – | 3000 nM |
| 2660 nM | 900 nM | – | COC(=O)N1CCC(n2ncc3c(N4CCOCC4)nc(-c4ccc(O)cc4)nc32)CC1 [Compound 944, methyl 4-[6-(4-hydroxyphenyl)-4-morpholin-4-yl-1H-pyrazolo[3,4-d]pyrimidin-1-yl]piperidine-1-carboxylate] | – | 2100 nM |
| 1830 nM | 600 nM | – | COC(=O)Nc1ccc(-c2nc(N3CCOCC3)c3cnn(C4CCN(Cc5cccnc5OC)CC4)c3n2)cc1 [Compound 452, methyl [4-(1-{1-[(2-methoxypyridin-3-yl)methyl]piperidin-4-yl}-4-morpholin-4-yl-1H-pyrazolo[3,4-d]pyrimidin-6-yl)phenyl]carbamate] | – | 2200 nM |
| 1460 nM | 1900 nM | – | CN(C)CC(=O)N1CCC(n2ncc3c(N4CCOCC4)nc(-c4ccc5[nH]ccc5c4)nc32)CC1 [Compound 94] | – | 4200 nM |
| 939 nM | 3500 nM | – | c1cc2cc(-c3nc(N4CCOCC4)c4cn[nH]c4n3)ccc2[nH]1 [Compound 248, 6-(1H-indol-5-yl)-4-morpholin-4-yl-1H-pyrazolo[3,4-d]pyrimidine] | – | 9000 nM |
| 786 nM | 2500 nM | – | COC(=O)Nc1ccc(-c2nc(N3CCOCC3)c3cnn(C4CCN(Cc5ccccc5Cl)CC4)c3n2)cc1 [Compound 455, methyl (4-{1-[1-(2-chlorobenzyl)piperidin-4-yl]-4-morpholin-4-yl-1H-pyrazolo[3,4-d]pyrimidin-6-yl}phenyl)carbamate] | – | 5200 nM |
| 436 nM | 2300 nM | – | O=C(NCCF)Nc1ccc(-c2nc(N3CCOCC3)c3cnn(C4CCNCC4)c3n2)cc1 [Compound 774, 1-(2-fluoroethyl)-3-[4-(4-morpholin-4-yl-1-piperidin-4-yl-1H-pyrazolo[3,4-d]pyrimidin-6-yl)phenyl]urea] | – | 1050 nM |
| 173 nM | 400 nM | – | C#CCNC(=O)Nc1ccc(-c2nc(N3CCOCC3)c3cnn(C4CCN(Cc5ccccc5)CC4)c3n2)cc1 [Compound 312, 1-{4-[1-(1-benzylpiperidin-4-yl)-4-morpholin-4-yl-1H-pyrazolo[3,4-d]pyrimidin-6-yl]phenyl}-3-prop-2-yn-1-ylurea] | – | 3900 nM |
| 169 nM | 270 nM | – | CNC(=O)Nc1ccc(-c2nc(N3CCOCC3)c3cnn([C@H]4CCCN(C(=O)OC(C)(C)C)C4)c3n2)cc1 [Compound 872, tert-butyl (3S)-3-(6-{4-[(methylcarbamoyl)amino]phenyl}-4-morpholin-4-yl-1H-pyrazolo[3,4-d]pyrimidin-1-yl)piperidine-1-carboxylate] | – | 1000 nM |
| 108 nM | 200 nM | – | Nc1ccc(-c2nc(N3CCOCC3)c3cnn(C4CCN(Cc5cccnc5)CC4)c3n2)cn1 [Example 210, 5-{4-morpholin-4-yl-1-[1-(pyridin-3-ylmethyl)piperidin-4-yl]-1H-pyrazolo[3,4-d]pyrimidin-6-yl}pyridin-2-amine] | – | 1100 nM |
| 98 nM | 2700 nM | – | C[C@H]1COCCN1c1nc(-c2cccc(O)c2)nc2c1cnn2-c1ccccc1 [Compound 726, 3-{4-[(3S)-3-methylmorpholin-4-yl]-1-phenyl-1H-pyrazolo[3,4-d]pyrimidin-6-yl}phenol] | – | 8000 nM |
| 47 nM | 27 nM | – | CNC(=O)Nc1ccc(-c2nc(N3CCOCC3)c3cnn(C4CCN(Cc5ccc(Cl)nc5)CC4)c3n2)cc1 [Example 388, 1-[4-(1-{1-[(6-chloropyridin-3-yl)methyl]piperidin-4-yl}-4-morpholin-4-yl-1H-pyrazolo[3,4-d]pyrimidin-6-yl)phenyl]-3-methylurea] | 100 nM | – |
| 23 nM | 500 nM | – | CNC(=O)Nc1ccc(-c2nc(N3CCOCC3)c3cnn(C4CCNCC4)c3n2)cc1 [Example 338, 1-methyl-3-[4-(4-morpholin-4-yl-1-piperidin-4-yl-1H-pyrazolo[3,4-d]pyrimidin-6-yl)phenyl]urea] | – | 1300 nM |
| 20 nM | 110 nM | – | Oc1cccc(-c2nc(N3CCOCC3)c3cnn(C4CCN(Cc5ccc[nH]5)CC4)c3n2)c1 [Example 14] | – | 600 nM |
